This is an account of results in patent US10532106B2 (priority 2014, dated 2020).

Like-named read-outs stand apart in the source and are kept apart here. Numbered stars: 1 amine (or outer) side, 2 acyl side, 3 side chain; on linkers, the order of the positions; unused ones are H or OH. Bridge positions count the residues as written; N and C are the ends. Square brackets hold non-standard residues; d marks the D form. Peptide text beside a SMILES is read from it. * marks the point of attachment. DOTA = O=C(O)CN1CCN(CC(=O)O)CCN(CC(=O)*)CCN(CC(=O)O)CC1; Phe(4-Br) = N[C@@H](Cc1ccc(Br)cc1)C(=O)O; 1Nal = N[C@@H](Cc1cccc2ccccc12)C(=O)O; TBMB = c1c(C[*:1])cc(C[*:3])cc1C[*:2]; Phg = N[C@H](C(=O)O)c1ccccc1; Tle = CC(C)(C)[C@H](N)C(=O)O; Sar = CNCC(=O)O

The target of the assay is T1, MT1-MMP hemopexin domain (Homo sapiens, UniProt P50281).
T1 construct: residues Cys319-Gly511 from the human gene; His6 (N); made in house; host or cells: HEK293 (transient), pEXPR-IBA42 vector
Description: Competition assay using fluorescence polarisation. Particulars: for Kd: read-out: Kd. Type of assay: binding. The text has this: Here, a pre-formed complex of PEX with the fluorescent PEX-binding tracer is titrated with free, non-fluoresceinated bicyclic peptide. Since all 17-69-based peptides are expected to bind at the same site, the titrant will displace the fluorescent tracer from PEX. Dissociation of the complex can be measured quantitatively, and the Kd of the competitor (titrant) to the target protein determined. The advantage of the competition method is that the affinities of non-fluoresceinated bicyclic peptides can be determined accurately and rapidly.
Subsequently, the non-fluorescent competitor bicyclic peptide (usually just the bicycle core sequence) is titrated, such that it displaces the fluorescent tracer from the target protein. The displacement of the tracer is measured and associated with a drop in fluorescence polarisation. The drop in fluorescence polarisation is proportional to the fraction of target protein bound with the non-fluorescent titrant, and thus is a measure of the affinity of titrant to target protein.
The raw data is fit to the analytical solution of the cubic equation that describes the equilibria between fluorescent tracer, titrant, and binding protein. The fit requires the value of the affinity of fluorescent tracer to the target protein, which can be determined separately by direct binding FP experiments (see previous section).
(In general: Polarisation of emitted light reports the rotation of a fluorescent probe.)

[1] abbreviates: Table 8, substitutions at position 4.

Usually Kd stands for the equilibrium constant for the complex coming apart. In the case of `CC[C@H](C)[C@@H]1NC(=O)[C@H](CC(=O)O)NC(=O)[C@H](Cc2ccc(O)cc2)NC(=O)[C@H](Cc2ccccc2)NC(=O)[C@H](CC(=O)O)NC(=O)[C@H](CCC(=O)O)NC(=O)[C@@H]2CSCc3cc(cc(c3)CSC[C@H](NC(C)=O)C(=O)N[C@@H](Cc3ccc(O)cc3)C(=O)N[C@@H](CC(N)=O)C(=O)N[C@@H](CCC(=O)O)C(=O)N[C@@H](Cc3ccc(O)cc3)C(=O)NCC(=O)N2)CSC[C@@H](C(N)=O)NC1=O` [17-69-07-N057, Ac-(17-69-07) Tyr4] (Ac-CYNEYGCEDFYDIC-NH2; linker 1-7-14 via TBMB), the Kd under setting [1] worked out at 1.78 ± 0.45 nM.

Turning to `CC[C@H](C)[C@@H]1NC(=O)[C@H](CC(=O)O)NC(=O)[C@H](Cc2ccc(O)cc2)NC(=O)[C@H](Cc2ccccc2)NC(=O)[C@H](CC(=O)O)NC(=O)[C@H](CCC(=O)O)NC(=O)[C@@H]2CSCc3cc(cc(c3)CSC[C@@H](C(=O)N[C@@H](C)C(N)=O)NC1=O)CSC[C@H](NC(=O)[C@H](C)N)C(=O)N[C@@H](CCSC)C(=O)N[C@@H](CC(N)=O)C(=O)N[C@@H](CCC(N)=O)C(=O)N[C@@H](Cc1ccccc1)C(=O)NCC(=O)N2` [17-69-12-N003, A-(17-69-12)-A] (H-ACMNQFGCEDFYDICA-NH2; linker 2-8-15 via TBMB), for the setting “Table 3, Competition, tracer A-(17-69-07)-A-Sar6-K(Fluorescein)”, the Kd came to 3.7 ± 2.52 nM.

As to `CC[C@H](C)[C@@H]1NC(=O)[C@H](CC(=O)O)NC(=O)[C@H](Cc2ccc(O)cc2)NC(=O)[C@H](Cc2ccccc2)NC(=O)[C@H](CC(=O)O)NC(=O)[C@H](CCC(=O)O)NC(=O)[C@@H]2CSCc3cc(cc(c3)CSC[C@H](NC(C)=O)C(=O)N[C@@H](Cc3ccc(O)cc3)C(=O)N[C@@H](CC(N)=O)C(=O)N[C@@H](CCC(=O)O)C(=O)N[C@@H](C(C)(C)C)C(=O)NCC(=O)N2)CSC[C@@H](C(N)=O)NC1=O` [17-69-07-N072, Ac-(17-69-07) tBuGly4] (Ac-CYNE[Tle]GCEDFYDIC-NH2; linker 1-7-14 via TBMB), under setting [1], the Kd is over 5000 nM.

Consider `CC[C@H](C)[C@@H]1NC(=O)[C@H](CC(=O)O)NC(=O)[C@H](Cc2ccc(O)cc2)NC(=O)[C@H](Cc2ccccc2)NC(=O)[C@H](CC(=O)O)NC(=O)[C@H](CCC(=O)O)NC(=O)[C@@H]2CSCc3cc(cc(c3)CSC[C@H](NC(C)=O)C(=O)N[C@@H](Cc3ccc(O)cc3)C(=O)N[C@@H](CC(N)=O)C(=O)N[C@@H](CCC(=O)O)C(=O)N[C@@H](c3ccccc3)C(=O)NCC(=O)N2)CSC[C@@H](C(N)=O)NC1=O` [17-69-07-N071, Ac-(17-69-07) Phg4] (Ac-CYNE[Phg]GCEDFYDIC-NH2; linker 1-7-14 via TBMB), for which the Kd under setting [1] came out at 628 nM.

For `C[C@H](NC(=O)CN1CCN(CC(=O)O)CCN(CC(=O)O)CCN(CC(=O)O)CC1)C(=O)N[C@H]1CSCc2cc3cc(c2)CSC[C@H](NC(=O)[C@@H](C)NC(=O)[C@H](Cc2cccc4ccccc24)NC(=O)[C@H](CCC(=O)O)NC(=O)[C@H](CC(N)=O)NC(=O)[C@@H](C)NC1=O)C(=O)N[C@@H](CCC(=O)O)C(=O)N[C@@H](CC(=O)O)C(=O)N[C@@H](Cc1ccccc1)C(=O)N[C@@H](Cc1ccc(Br)cc1)C(=O)N[C@@H](CC(=O)O)C(=O)N[C@@H](C(C)(C)C)C(=O)N[C@H](C(N)=O)CSC3` [17-69-07-N248, DOTA-A-(17-69-07) D-Ala1 1Nal4 D-Ala5 4BrPhe9 tBuGly11] ({DOTA}-AC[dA]NE[1Nal][dA]CEDF[Phe(4-Br)]D[Tle]C-NH2; linker 2-8-15 via TBMB), the “potency / activity toward MT1-MMP, in words” value is on record as “retained potency”. The Kd (Table 15, DOTA-linked peptides) came to 0.5 nM.

Regarding `C[C@H](NC(=O)CN(C)C(=O)CN(C)C(=O)CN(C)C(=O)CN(C)C(=O)CN(C)C(=O)CN(C)C(=O)CN(C)C(=O)CN(C)C(=O)CN(C)C(=O)CN(C)C(=O)CN)C(=O)N[C@H]1CSCc2cc3cc(c2)CSC[C@H](NC(=O)[C@@H](C)NC(=O)[C@H](Cc2cccc4ccccc24)NC(=O)[C@H](CCC(=O)O)NC(=O)[C@H](CC(N)=O)NC(=O)[C@@H](C)NC1=O)C(=O)N[C@@H](CCC(=O)O)C(=O)N[C@@H](CC(=O)O)C(=O)N[C@@H](Cc1ccccc1)C(=O)N[C@@H](Cc1ccc(O)cc1)C(=O)N[C@@H](CC(=O)O)C(=O)N[C@@H](C(C)(C)C)C(=O)N[C@H](C(N)=O)CSC3` [17-69-07-N231, G-Sar10-A-(17-69-07) D-Ala1 1Nal4 D-Ala5 tBuGly11] (H-G[Sar][Sar][Sar][Sar][Sar][Sar][Sar][Sar][Sar][Sar]AC[dA]NE[1Nal][dA]CEDFYD[Tle]C-NH2; linker 13-19-26 via TBMB), for the setting “Table 12, molecules selected for plasma stability assessment”, the dissociation constant Kd was determined as 1.07 ± 0.28 nM.

In the case of `CC[C@H](C)[C@@H]1NC(=O)[C@H](CC(=O)O)NC(=O)[C@H](Cc2ccc(O)cc2)NC(=O)[C@H](Cc2ccccc2)NC(=O)[C@H](CC(=O)O)NC(=O)[C@H](CCC(=O)O)NC(=O)[C@@H]2CSCc3cc(cc(c3)CSC[C@H](NC(C)=O)C(=O)N[C@@H](Cc3ccc(O)cc3)C(=O)N[C@@H](CC(N)=O)C(=O)N[C@@H](CCC(=O)O)C(=O)N[C@@H](Cc3ccc(Cl)c(Cl)c3)C(=O)NCC(=O)N2)CSC[C@@H](C(N)=O)NC1=O` [17-69-07-N137, Ac-(17-69-07) 3,4-DCPhe4], the Kd under setting [1] worked out at 1.85 ± 2.45 nM.

Regarding `CC[C@H](C)[C@@H]1NC(=O)[C@H](CC(=O)O)NC(=O)[C@H](Cc2ccc(Br)cc2)NC(=O)[C@H](Cc2ccccc2)NC(=O)[C@H](CC(=O)O)NC(=O)[C@H](CCC(=O)O)NC(=O)[C@@H]2CSCc3cc(cc(c3)CSC[C@H](NC(C)=O)C(=O)N[C@@H](Cc3ccc(O)cc3)C(=O)N[C@@H](CC(N)=O)C(=O)N[C@@H](CCC(=O)O)C(=O)N[C@@H](Cc3ccccc3)C(=O)NCC(=O)N2)CSC[C@@H](C(N)=O)NC1=O` [17-69-07-N130, Ac-(17-69-07) 4BrPhe9] (Ac-CYNEFGCEDF[Phe(4-Br)]DIC-NH2; linker 1-7-14 via TBMB), where the note is “Table 9, tolerated substitutions at positions 9 and 11”, the Kd amounted to 2.45 ± 1.08 nM.

As to `CC[C@H](C)[C@@H]1NC(=O)[C@H](CC(=O)O)NC(=O)[C@H](Cc2ccc(O)cc2)NC(=O)[C@H](Cc2ccccc2)NC(=O)[C@H](CC(=O)O)NC(=O)[C@H](CCC(=O)O)NC(=O)[C@@H]2CSCc3cc(cc(c3)CSC[C@H](NC(C)=O)C(=O)N[C@@H](Cc3ccc(O)cc3)C(=O)N[C@@H](CC(N)=O)C(=O)N[C@@H](CCC(=O)O)C(=O)N[C@@H](Cc3ccccc3)C(=O)N[C@H](CCCNC(=N)N)C(=O)N2)CSC[C@@H](C(N)=O)NC1=O` [17-69-07-N120, Ac-(17-69-07) D-Arg5] (Ac-CYNEF[dR]CEDFYDIC-NH2; linker 1-7-14 via TBMB), the Kd (Table 7, substitutions at position 5) was 4.24 ± 1.48 nM.

In the case of `CC[C@H](C)[C@@H]1NC(=O)[C@H](CC(=O)O)NC(=O)[C@H](Cc2ccc(O)cc2)NC(=O)[C@H](Cc2ccccc2)NC(=O)[C@H](CC(=O)O)NC(=O)[C@H](CCC(=O)O)NC(=O)[C@@H]2CSCc3cc(cc(c3)CSC[C@H](NC(C)=O)C(=O)N[C@@H](Cc3ccc(O)cc3)C(=O)N[C@@H](CC(N)=O)C(=O)N[C@@H](CCC(=O)O)C(=O)N[C@@H](Cc3ccccc3)C(=O)N3CCC[C@@H]3C(=O)N2)CSC[C@@H](C(N)=O)NC1=O` [17-69-07-N059, Ac-(17-69-07) D-Pro5] (Ac-CYNEF[dP]CEDFYDIC-NH2; linker 1-7-14 via TBMB), the Kd (Table 6, D-Alanine substitutions in first loop) is over 5000 nM.
